Calls of active or inactive are those of the source.
Key:
[1] = biological target: T1, Fatty acid synthase (Homo sapiens, UniProt P49327); assay: inhibition of human FAS-TE enzyme activity – biochemical, endpoint fluorescence intensity, uHTS hits, dose response (AID 624327); type: functional;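 also: fluorescence from hydrolysis of an O-methyl fluorescein acyl ester substrate by the enzyme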
[2] = biological target: T1, Fatty acid synthase; assay: inhibition of human FAS-TE enzyme activity – biochemical, kinetic fluorescence intensity, dose response (AID 624326); type: functional;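 also: rate of fluorescence rise from hydrolysis of a fluorogenic O-methyl fluorescein ester substrate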
[3] = activation of miR-122 Renilla sensor silencing – cell-based, Huh7 psiCHECK-miR122, Renilla luciferase, cherry-picked, dose response (AID 651956); type: functional;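 also: huh7 hepatoma cells stably carrying a psiCHECK-2 miR-122 sensor plasmid; renilla luciferase signal reporting endogenous miR-122 activity after 48 h compound exposure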
[4] = Luminescence Cell-Based Dose Retest to Confirm Inhibitors of Cancer Stem Cells. [Related pubchem assays (depositor defined):AID2717, AID2721]; type: functional; settings: Homo sapiens
[5] = biological target: T2, Ubiquitin-conjugating enzyme E2 N (Homo sapiens, UniProt P61088); type: functional;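 also: Dose-response confirmation in a TR-FRET assay detecting UBC13-driven polyubiquitin chain formation, inhibition measured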
T2 sequence (P61088 whole entry): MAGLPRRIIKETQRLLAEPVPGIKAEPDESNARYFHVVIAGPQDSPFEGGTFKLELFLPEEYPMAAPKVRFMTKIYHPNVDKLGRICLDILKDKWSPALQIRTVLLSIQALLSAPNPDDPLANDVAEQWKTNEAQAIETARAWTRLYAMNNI

[6] = biological target: T3, Replicative DNA helicase DnaB (Mycobacterium tuberculosis, UniProt P9WMR3); assay: DnaB intein splicing inhibitors, dose response, biochemical, cell-free fluorescence (AID 449749); type: functional
T3 sequence (P9WMR3 whole entry): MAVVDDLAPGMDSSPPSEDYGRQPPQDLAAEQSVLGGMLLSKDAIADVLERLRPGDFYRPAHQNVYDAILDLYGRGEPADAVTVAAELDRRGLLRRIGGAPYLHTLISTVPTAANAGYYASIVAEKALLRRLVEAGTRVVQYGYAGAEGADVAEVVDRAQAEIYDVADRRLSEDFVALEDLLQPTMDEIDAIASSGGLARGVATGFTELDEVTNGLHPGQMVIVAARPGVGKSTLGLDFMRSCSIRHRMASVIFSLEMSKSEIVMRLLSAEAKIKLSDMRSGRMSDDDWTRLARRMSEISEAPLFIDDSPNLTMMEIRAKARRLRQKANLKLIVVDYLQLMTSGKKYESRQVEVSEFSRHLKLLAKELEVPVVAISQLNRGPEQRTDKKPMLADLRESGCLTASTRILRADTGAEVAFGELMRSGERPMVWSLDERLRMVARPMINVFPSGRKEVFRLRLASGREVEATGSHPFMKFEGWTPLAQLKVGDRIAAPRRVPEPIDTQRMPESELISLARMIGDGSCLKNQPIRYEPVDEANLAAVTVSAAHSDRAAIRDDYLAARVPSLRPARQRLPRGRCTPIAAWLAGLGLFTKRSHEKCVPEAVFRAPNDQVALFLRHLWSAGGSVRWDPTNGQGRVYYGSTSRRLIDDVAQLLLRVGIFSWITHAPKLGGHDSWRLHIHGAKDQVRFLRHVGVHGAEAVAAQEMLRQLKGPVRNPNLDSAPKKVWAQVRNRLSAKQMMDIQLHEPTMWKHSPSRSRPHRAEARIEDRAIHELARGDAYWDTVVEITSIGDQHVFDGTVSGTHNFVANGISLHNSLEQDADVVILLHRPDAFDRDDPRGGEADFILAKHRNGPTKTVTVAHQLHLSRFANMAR

[7] = biological target: T4, Protein RecA (Mycobacterium tuberculosis, UniProt P9WHJ3); assay: Fluorescence Cell-Free Homogeneous Dose Retest to Identify Inhibitors of RecA-Intein Splicing Activity. [Related pubchem assays (depositor defined):AID2097, AID2223, AID489010, AID492950]; type: functional
T4 sequence (P9WHJ3 whole entry): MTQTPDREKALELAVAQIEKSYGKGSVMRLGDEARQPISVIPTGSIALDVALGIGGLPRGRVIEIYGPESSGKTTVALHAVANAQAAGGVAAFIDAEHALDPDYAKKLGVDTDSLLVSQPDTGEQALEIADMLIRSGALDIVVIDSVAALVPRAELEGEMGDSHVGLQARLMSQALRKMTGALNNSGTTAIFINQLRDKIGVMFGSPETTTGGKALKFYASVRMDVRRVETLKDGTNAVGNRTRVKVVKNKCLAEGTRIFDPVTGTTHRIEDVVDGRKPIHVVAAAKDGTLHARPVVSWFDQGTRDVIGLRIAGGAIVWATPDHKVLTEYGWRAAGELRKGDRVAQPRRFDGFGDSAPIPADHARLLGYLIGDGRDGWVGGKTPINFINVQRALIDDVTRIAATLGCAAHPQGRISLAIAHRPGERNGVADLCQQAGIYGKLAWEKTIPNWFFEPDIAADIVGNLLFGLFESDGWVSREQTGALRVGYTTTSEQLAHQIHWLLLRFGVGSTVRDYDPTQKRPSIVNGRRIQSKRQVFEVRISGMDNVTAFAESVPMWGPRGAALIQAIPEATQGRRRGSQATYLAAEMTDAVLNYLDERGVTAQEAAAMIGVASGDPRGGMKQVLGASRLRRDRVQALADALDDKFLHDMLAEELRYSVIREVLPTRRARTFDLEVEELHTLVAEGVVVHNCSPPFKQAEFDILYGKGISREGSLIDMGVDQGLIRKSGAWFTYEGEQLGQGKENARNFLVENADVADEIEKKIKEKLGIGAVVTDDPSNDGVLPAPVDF

[8] = biological target: T5, Hepatocyte nuclear factor 4-alpha (Homo sapiens, UniProt P41235); type: functional, cell-based;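 also: biochemical luminescence-based dose-response counterscreen measuring inhibition of HNF4 dimerization, run alongside a screen for blockers of ABHD5–perilipin-5 interaction; split luciferase complementation of HNF4 fusion proteins in cell lysate measuring dimerization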
T5 sequence (P41235 whole entry): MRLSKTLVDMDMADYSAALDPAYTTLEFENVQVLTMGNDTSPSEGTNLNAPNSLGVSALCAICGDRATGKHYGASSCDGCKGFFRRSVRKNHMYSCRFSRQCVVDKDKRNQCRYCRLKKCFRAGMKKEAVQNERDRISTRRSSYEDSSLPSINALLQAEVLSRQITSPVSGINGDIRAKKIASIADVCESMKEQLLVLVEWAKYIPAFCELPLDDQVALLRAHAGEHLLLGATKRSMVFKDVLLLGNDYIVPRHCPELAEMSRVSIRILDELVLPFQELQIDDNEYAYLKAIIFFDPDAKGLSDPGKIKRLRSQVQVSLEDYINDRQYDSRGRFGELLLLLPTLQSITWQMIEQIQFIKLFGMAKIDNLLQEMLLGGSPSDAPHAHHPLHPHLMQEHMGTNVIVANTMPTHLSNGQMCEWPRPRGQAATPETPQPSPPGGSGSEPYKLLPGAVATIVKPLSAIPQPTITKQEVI

[9] = biological target: Cytochrome P450 2C9 (Homo sapiens, UniProt P11712)
[10] = biological target: Beta-galactosidase (Escherichia coli, UniProt Q8VNN2); assay: PubChem AID 485352; type: functional
[11] = biological target: T6, Type-1 angiotensin II receptor (Homo sapiens, UniProt P30556); assay: antagonism of angiotensin II type 1 receptor – cell-based, uHTS hits, selectivity assay for APJ receptor antagonist project, dose response (AID 463214); type: functional;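 also: antagonist potency against angiotensin II stimulated AT1 response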
T6 sequence (P30556 whole entry): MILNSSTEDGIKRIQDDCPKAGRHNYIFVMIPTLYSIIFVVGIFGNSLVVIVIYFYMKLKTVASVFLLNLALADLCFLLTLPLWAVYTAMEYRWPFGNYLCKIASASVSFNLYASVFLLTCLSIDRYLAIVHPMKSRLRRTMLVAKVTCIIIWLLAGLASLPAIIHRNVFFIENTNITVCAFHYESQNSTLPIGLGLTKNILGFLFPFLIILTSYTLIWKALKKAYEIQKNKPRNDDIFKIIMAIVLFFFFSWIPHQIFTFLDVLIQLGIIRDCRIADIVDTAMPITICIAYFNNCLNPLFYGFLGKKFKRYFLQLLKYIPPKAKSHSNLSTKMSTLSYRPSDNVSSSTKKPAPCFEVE

[12] = biological target: T7, Carboxy-terminal domain RNA polymerase II polypeptide A small phosphatase 1 (Homo sapiens, UniProt Q9GZU7); assay: CTDSP1 inhibitors, concentration-response, biochemical, absorbance readout, ultra-high-throughput screen actives (AID 540297); type: functional
T7 sequence (Q9GZU7 whole entry): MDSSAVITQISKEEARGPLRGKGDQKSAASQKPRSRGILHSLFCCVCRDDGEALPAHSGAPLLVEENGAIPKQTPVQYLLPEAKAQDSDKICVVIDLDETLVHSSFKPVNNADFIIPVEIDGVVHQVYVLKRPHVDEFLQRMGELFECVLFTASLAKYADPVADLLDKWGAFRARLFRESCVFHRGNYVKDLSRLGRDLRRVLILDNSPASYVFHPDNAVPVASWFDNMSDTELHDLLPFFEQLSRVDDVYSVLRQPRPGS

[13] = biological target: T8, Low molecular weight phosphotyrosine protein phosphatase (Homo sapiens, UniProt P24666); type: functional; settings: read-out: IC50_Mean
T8 sequence (P24666 whole entry): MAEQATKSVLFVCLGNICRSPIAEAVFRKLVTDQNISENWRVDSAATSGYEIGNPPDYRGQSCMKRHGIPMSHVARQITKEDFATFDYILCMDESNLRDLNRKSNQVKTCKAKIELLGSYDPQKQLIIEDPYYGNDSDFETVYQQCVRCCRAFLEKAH

[14] = biological target: T8, Low molecular weight phosphotyrosine protein phosphatase; type: functional; settings: read-out: IC50_Mean; remark: listed apart in the source
[15] = biological target: T9, Leucine aminopeptidase (Plasmodium falciparum 3D7, UniProt Q8IL11); assay: P. falciparum M17LAP inhibitors, primary screen, biochemical, fluorogenic H-Leu-NHMec substrate, 1536-well (AID 1619); type: functional
T9 sequence (Q8IL11 whole entry): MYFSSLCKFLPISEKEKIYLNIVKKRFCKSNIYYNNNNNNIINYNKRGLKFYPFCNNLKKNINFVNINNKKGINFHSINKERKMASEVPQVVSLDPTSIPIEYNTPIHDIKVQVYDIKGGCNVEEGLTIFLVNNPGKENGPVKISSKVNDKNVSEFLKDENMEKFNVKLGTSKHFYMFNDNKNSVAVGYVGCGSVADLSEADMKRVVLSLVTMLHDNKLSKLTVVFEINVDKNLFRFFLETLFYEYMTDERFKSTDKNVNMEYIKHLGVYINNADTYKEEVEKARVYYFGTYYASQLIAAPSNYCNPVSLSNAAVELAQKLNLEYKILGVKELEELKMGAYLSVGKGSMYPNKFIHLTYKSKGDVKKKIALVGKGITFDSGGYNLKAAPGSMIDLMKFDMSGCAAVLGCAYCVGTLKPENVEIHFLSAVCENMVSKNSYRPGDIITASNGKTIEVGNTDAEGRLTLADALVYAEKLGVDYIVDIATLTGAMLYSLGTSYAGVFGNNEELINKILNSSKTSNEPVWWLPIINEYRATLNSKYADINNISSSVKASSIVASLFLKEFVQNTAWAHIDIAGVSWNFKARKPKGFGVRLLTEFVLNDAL

[16] = THP-1 cell cytotoxicity, dose response, cytotoxicity control for non-replicating M. tuberculosis project (AID 489025); type: functional
[17] = biological target: T10, Long-chain-fatty-acid--AMP ligase FadD28 (Mycobacterium tuberculosis, UniProt P9WQ59); assay: Fluorescence polarization aasay to screen for inhibitors that compete for the binding of FadD28 to a bisubstrate Measured in Biochemical System Using Plate Reader - 2147-01_Inhibitor_Dose_CherryPick_Activity.; type: functional, Mycobacterium tuberculosis H37Rv
T10 sequence (P9WQ59 whole entry): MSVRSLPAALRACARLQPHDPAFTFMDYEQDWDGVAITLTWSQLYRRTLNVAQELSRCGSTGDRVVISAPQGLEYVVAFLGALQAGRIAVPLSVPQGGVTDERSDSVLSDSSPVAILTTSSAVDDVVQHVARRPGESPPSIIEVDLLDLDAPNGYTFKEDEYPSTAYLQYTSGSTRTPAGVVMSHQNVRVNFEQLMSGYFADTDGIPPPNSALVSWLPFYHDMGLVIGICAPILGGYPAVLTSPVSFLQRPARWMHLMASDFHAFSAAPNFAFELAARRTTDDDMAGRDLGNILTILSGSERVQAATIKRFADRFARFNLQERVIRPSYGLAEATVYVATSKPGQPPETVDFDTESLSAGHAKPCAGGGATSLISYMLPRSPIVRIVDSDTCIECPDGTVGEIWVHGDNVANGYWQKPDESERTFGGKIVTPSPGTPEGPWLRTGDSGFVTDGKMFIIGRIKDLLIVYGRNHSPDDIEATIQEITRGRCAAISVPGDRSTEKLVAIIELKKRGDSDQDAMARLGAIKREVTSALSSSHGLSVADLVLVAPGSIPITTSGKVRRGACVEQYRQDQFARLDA

T1 sequence (P49327 whole entry): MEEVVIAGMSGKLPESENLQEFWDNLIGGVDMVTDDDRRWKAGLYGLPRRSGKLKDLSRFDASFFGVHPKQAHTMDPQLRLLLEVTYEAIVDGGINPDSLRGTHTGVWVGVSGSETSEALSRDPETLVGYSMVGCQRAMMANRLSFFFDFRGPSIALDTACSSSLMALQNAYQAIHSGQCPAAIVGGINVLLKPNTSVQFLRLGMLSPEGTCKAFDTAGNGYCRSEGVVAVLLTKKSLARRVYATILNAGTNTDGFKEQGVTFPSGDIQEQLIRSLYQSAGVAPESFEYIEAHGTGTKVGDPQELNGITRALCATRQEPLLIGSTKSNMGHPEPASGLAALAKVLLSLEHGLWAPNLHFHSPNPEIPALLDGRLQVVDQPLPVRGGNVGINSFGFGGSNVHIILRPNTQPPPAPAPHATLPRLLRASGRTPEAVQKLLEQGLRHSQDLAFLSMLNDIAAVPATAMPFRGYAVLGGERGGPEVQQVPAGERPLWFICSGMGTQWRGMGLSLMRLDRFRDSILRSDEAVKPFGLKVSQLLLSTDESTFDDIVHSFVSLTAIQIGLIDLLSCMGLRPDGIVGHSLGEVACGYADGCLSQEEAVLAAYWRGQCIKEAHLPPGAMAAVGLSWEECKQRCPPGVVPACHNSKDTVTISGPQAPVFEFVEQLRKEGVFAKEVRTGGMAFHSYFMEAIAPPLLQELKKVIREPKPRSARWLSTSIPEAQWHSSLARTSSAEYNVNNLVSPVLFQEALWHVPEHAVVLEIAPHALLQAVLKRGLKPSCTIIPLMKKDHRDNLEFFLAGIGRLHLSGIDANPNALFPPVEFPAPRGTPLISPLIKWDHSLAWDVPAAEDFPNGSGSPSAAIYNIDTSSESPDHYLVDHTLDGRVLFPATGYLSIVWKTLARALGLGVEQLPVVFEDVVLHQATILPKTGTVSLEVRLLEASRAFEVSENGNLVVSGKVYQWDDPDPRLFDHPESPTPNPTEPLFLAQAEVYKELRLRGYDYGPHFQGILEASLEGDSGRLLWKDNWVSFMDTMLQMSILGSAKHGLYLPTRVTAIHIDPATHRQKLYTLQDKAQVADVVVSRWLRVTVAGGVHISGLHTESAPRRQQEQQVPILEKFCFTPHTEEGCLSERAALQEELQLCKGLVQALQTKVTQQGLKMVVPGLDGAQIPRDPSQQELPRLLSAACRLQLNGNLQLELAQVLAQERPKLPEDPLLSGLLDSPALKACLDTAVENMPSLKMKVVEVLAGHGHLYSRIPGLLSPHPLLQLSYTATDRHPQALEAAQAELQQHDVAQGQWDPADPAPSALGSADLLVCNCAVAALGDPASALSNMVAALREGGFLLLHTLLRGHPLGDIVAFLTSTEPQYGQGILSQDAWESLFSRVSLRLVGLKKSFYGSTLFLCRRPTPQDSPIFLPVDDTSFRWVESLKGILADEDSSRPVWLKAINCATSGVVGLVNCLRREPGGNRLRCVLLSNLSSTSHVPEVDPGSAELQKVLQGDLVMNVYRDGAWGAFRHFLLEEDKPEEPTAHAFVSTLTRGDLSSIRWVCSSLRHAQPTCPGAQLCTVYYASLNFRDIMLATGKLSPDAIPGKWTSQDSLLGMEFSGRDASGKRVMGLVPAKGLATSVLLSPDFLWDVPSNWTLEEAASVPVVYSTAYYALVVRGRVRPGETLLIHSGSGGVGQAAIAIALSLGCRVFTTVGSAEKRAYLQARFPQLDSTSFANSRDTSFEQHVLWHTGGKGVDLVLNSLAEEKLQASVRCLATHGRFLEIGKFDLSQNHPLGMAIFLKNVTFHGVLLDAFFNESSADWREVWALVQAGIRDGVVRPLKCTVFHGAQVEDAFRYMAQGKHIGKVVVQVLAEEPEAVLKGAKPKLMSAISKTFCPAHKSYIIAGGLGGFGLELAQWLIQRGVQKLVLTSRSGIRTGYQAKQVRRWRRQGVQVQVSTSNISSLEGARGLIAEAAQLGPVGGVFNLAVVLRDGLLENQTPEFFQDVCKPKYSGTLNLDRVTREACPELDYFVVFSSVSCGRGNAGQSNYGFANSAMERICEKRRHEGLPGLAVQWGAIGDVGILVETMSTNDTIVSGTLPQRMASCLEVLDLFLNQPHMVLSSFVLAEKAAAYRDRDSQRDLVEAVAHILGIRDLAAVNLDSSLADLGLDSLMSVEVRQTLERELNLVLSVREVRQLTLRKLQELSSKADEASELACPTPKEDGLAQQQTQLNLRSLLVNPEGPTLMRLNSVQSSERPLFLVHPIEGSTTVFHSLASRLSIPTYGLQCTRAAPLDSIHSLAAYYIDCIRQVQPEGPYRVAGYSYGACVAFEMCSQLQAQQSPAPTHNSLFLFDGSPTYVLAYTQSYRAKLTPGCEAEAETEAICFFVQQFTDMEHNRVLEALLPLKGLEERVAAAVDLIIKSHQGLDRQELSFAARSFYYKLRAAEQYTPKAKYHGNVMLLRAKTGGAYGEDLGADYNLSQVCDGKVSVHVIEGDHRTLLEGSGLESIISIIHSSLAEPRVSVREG
Chain of Beta-galactosidase (Q8VNN2 whole entry): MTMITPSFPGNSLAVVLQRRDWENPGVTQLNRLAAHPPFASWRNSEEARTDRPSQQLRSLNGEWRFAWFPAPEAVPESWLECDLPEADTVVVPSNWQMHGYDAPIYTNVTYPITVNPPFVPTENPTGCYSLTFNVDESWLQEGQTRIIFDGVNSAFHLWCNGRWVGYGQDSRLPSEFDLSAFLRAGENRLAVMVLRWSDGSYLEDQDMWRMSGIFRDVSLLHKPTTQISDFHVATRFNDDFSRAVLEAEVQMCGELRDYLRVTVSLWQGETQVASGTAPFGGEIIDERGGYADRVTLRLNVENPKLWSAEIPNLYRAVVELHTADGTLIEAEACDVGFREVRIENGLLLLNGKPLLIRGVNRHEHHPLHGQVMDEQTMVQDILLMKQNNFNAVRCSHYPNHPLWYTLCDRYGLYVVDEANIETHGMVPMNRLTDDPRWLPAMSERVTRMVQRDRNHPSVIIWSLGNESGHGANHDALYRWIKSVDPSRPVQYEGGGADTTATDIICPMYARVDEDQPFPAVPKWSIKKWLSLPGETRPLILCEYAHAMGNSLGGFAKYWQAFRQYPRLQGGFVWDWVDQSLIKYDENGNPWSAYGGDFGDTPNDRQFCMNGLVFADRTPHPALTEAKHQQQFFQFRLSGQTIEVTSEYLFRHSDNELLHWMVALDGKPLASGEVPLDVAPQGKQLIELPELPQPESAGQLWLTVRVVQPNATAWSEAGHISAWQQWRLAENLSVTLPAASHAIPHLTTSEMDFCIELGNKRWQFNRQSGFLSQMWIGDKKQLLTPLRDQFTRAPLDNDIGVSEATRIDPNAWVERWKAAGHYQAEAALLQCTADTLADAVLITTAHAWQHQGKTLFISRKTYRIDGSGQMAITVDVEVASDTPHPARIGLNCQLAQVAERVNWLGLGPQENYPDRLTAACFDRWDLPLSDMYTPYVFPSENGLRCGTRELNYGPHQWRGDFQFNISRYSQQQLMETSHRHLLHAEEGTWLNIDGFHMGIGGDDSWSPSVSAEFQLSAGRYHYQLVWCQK
Chain of Cytochrome P450 2C9 (P11712 whole entry): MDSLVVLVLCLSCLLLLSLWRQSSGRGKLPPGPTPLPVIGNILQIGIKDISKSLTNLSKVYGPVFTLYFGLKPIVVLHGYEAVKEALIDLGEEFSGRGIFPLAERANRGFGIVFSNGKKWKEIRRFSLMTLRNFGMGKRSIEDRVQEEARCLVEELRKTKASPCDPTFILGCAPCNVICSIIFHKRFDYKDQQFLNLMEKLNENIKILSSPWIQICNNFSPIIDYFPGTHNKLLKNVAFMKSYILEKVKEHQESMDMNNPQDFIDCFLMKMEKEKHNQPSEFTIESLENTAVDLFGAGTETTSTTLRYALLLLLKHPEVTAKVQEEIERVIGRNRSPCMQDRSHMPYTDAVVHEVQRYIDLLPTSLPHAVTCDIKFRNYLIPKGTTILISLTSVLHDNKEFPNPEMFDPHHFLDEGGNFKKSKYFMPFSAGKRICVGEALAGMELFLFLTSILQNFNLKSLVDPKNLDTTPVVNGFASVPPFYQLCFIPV

## Cc1ccc(NC(=O)CCNS(=O)(=O)c2cc(Br)cnc2N)cc1Cl
[1]
  IC50: 10.3 µM (active)
[2]
  IC50: 16.1 µM (active)

## CCNC(=O)C[C@H]1CC[C@@H]2[C@@H](COc3ccc(NC(=O)Nc4cccc(Cl)c4)cc3C(=O)N2C)O1
[3]
  AC50: 42 µM (active)

## COCC(=O)N(C)C[C@H]1Oc2cc(-c3ccccc3F)ccc2S(=O)(=O)N([C@H](C)CO)C[C@H]1C
[3]
  AC50: 2.56 µM (active)

## O=C(c1ccc(CNc2c(NC3CCCCC3)c(=O)c2=O)cc1)N1CCc2ccccc21
[3]
  AC50: 0.583 µM (active)

## O=C(COC(=O)c1cc([N+](=O)[O-])ccc1N1CCOCC1)Nc1ncc(Cl)cc1Cl
[1]
  IC50: 8.79 µM (active)
[2]
  IC50: 7.24 µM (active)

## CCN(CC)CCOc1ccc(/C(=C(\Cl)c2ccccc2)c2ccccc2)cc1.O=C(O)CC(O)(CC(=O)O)C(=O)O [CLOMIPHENE CITRATE]
[4]
  AC50: 0.997 µM (active)
[5]
  IC50: > 20 µM (inactive)
[6]
  AC50: 3.79 µM (active)
[7]
  EC50: 12.1 µM (active)
[8]
  IC50: 10.8 µM (inactive)
[9]
  AC50: inconclusive

## COc1ccc(/C=C/C(=O)NC(=S)Nc2cc([N+](=O)[O-])ccc2O)cc1OC
[10]
  EC50: > 40 µM (inactive)
[11]
  IC50: > 40 µM (not active)
[12]
  IC50: 4.85 µM (active)
[13]
  IC50: > 80 µM (inactive)
[14]
  IC50: 17.8 µM (active)

## O=C(O)CCCCCNc1nc(-c2ccccc2)nc2ccccc12
[13]
  IC50: 26.9 µM (inactive)
[14]
  IC50: 12 µM (active)

## CCCN(CC(=O)Nc1ccc(F)c(F)c1F)C(=O)c1cc([N+](=O)[O-])ccc1N1CCOCC1
[1]
  IC50: 14.9 µM (active)
[2]
  IC50: 10.6 µM (active)

## O=C(Nc1sc2c(c1C(=O)O)CCCCC2)c1ccccc1F
[15]
  IC50: 71 µM (active)
[16]
  CC50: > 40 µM (active)
[17]
  AC50: > 100 µM (inactive)

— ChEMBL document CHEMBL1201862, “PubChem BioAssay data set” (2004)
